From patent US20240158446A1, “CYCLIC COMPOUND HAVING SELECTIVE INHIBITORY ACTION ON KRAS OVER HRAS AND NRAS” (CHUGAI SEIYAKU KABUSHIKI KAISHA, priority 2021, published 2024)
Where two headings read alike, the source gives them in different places. Where a SMILES comes first, the peptide text is derived from it. Bridges are numbered along the chain shown (N, C = ends). [ ]: non-standard residue; d: D form. The star is where a group is joined. hPhe(3-Cl-4-CF3) = N[C@@H](CCc1ccc(C(F)(F)F)c(Cl)c1)C(=O)O; NPrPhe(4-CF3) = CCCN[C@@H](Cc1ccc(C(F)(F)F)cc1)C(=O)O; NMeGly(cPent) = CN[C@H](C(=O)O)C1CCCC1; Pro(4,4-F2) = O=C(O)[C@@H]1CC(F)(F)CN1; NMeD = CN[C@@H](CC(=O)O)C(=O)O; NMeL = CN[C@@H](CC(C)C)C(=O)O; Morpholide = C1CN(*)CCO1; Ac4c = NC1(C(=O)O)CCC1; Sar = CNCC(=O)O

Legend:
[1] = molecular target: GDP-bound KRAS wild-type protein (Homo sapiens, UniProt P01116); assay: Binding to KRAS by surface plasmon resonance (SPR), Single Cycle Kinetics; conditions: GDP-bound KRAS wild-type protein, read-out: KRAS KD
[2] = molecular target: GDP-bound NRAS wild-type protein (Homo sapiens, UniProt P01111); assay: Binding to NRAS by surface plasmon resonance (SPR), Single Cycle Kinetics; conditions: for NRAS/KRAS (ratio of KD value for NRAS to KD value for KRAS) / NRAS/KRAS (ratio of KD value with respect to NRAS to KD value with respect to KRAS): SPR, GDP-bound NRAS wild-type protein vs GDP-bound KRAS wild-type protein
[3] = molecular target: GDP-bound HRAS wild-type protein (Homo sapiens, UniProt P01112); assay: Binding to HRAS by surface plasmon resonance (SPR), Single Cycle Kinetics; conditions: for HRAS/KRAS (ratio of KD value for HRAS to KD value for KRAS) / HRAS/KRAS (ratio of KD value with respect to HRAS to KD value with respect to KRAS): SPR, GDP-bound HRAS wild-type protein vs GDP-bound KRAS wild-type protein
[4] = SPR Single Cycle Kinetics, 1:1 binding model

Chain of GDP-bound HRAS wild-type protein (P01112 whole entry): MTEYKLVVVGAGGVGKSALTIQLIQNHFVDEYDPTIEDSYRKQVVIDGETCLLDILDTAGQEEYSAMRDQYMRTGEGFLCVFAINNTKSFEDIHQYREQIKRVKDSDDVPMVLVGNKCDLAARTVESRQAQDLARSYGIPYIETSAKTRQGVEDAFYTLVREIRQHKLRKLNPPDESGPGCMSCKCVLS
Chain of GDP-bound NRAS wild-type protein (P01111 whole entry): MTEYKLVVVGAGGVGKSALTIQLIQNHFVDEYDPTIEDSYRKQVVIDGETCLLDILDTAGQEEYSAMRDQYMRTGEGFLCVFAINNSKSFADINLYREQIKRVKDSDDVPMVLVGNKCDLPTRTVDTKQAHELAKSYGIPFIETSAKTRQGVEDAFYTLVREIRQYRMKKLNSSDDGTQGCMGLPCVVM
Chain of GDP-bound KRAS wild-type protein (P01116 whole entry): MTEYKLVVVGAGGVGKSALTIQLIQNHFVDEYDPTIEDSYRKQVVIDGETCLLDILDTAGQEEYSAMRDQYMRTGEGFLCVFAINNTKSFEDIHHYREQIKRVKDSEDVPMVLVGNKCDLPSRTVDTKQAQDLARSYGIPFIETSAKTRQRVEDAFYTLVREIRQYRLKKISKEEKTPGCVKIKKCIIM

Kd ([1]; SPR, Single Cycle Kinetics) [nM]	Kd [1, 4] [nM]	Structure (SMILES)	NRAS/KRAS (ratio of KD value for NRAS to KD value for KRAS) [2]	HRAS/KRAS (ratio of KD value for HRAS to KD value for KRAS) [3]	NRAS/KRAS (ratio of KD value with respect to NRAS to KD value with respect to KRAS) [2]	HRAS/KRAS (ratio of KD value with respect to HRAS to KD value with respect to KRAS) [3]	further results
0.67	–	CCO[C@@H]1C[C@H]2C(=O)NC3(CCCC3)C(=O)N(C)[C@@H](C3CCCC3)C(=O)N(C)[C@H](C(=O)N(C)C)CC(=O)N(C)[C@@H](CC(C)C)C(=O)N[C@@H]([C@@H](C)CC)C(=O)N(C)CC(=O)N(C)[C@H]3CC(C)=CCN(C3=O)[C@@H](Cc3ccc(C(F)(F)F)cc3)C(=O)N(C)CC(=O)N[C@@H](CCc3cc(F)c(C(F)(F)F)c(F)c3)C(=O)N2C1 [PP1031]	C (A compound having a KD ratio of 0.1 or more and less than 3 is denoted as C)	C (A compound having a KD ratio of 0.1 or more and less than 3 is denoted as C)	–	–	–
–	0.62	CCO[C@@H]1C[C@H]2C(=O)NC3(CCC3)C(=O)N(C)[C@@H](C3CCCC3)C(=O)N(CCC3CCC3)[C@H](C(=O)N3CCOCC3)CC(=O)N(C)[C@@H](CC(C)C)C(=O)N[C@@H]([C@@H](C)CC)C(=O)N(C)CC(=O)N(C)[C@H]3CCCCN(C3=O)[C@@H](Cc3ccc(C(F)(F)F)cc3)C(=O)N(C)CC(=O)N[C@@H](CCc3cc(F)c(C(F)(F)F)c(F)c3)C(=O)N2C1 [PP0650]	–	–	C (A compound having a KD ratio of 0.1 or more and less than 3 is denoted as C)	B (a compound having 3 or more and less than 10 is denoted as B)	–
–	0.015	CCO[C@@H]1C[C@H]2C(=O)NC3(CCC3)C(=O)N(C)[C@@H](C3CCCC3)C(=O)N(C)[C@H](C(=O)N(C)C)CC(=O)N(C)[C@@H](CC(C)C)C(=O)N[C@@H]([C@@H](C)CC)C(=O)N(C)CC(=O)N(C)[C@H]3CCCCN(C3=O)[C@@H](Cc3ccc(C(F)(F)F)cc3)C(=O)N(C)CC(=O)N[C@@H](CCc3cc(F)c(C(F)(F)F)c(F)c3)C(=O)N2C1 [PP0580]	–	–	C (A compound having a KD ratio of 0.1 or more and less than 3 is denoted as C)	C (A compound having a KD ratio of 0.1 or more and less than 3 is denoted as C)	–
0.43	–	CCO[C@@H]1C[C@H]2C(=O)NC3(CCC3)C(=O)N(C)[C@@H](C3CCCC3)C(=O)N(C)[C@H](C(=O)N(C)C)CC(=O)N(C)[C@@H](Cc3cccc(F)c3)C(=O)N[C@@H]([C@@H](C)CC)C(=O)N(C)CC(=O)N(C)[C@H]3CCCCCN(C3=O)[C@@H](Cc3ccc(C(F)(F)F)cc3)C(=O)N(C)CC(=O)N[C@@H](CCc3cc(F)c(C(F)(F)F)c(F)c3)C(=O)N2C1 [PP0935]	B (a compound having 3 or more and less than 10 is denoted as B)	B (a compound having 3 or more and less than 10 is denoted as B)	–	–	–
–	0.055	CCO[C@@H]1C[C@H]2C(=O)NC3(CCC3)C(=O)N(C)[C@@H](C3CCCC3)C(=O)N(C)[C@H](C(=O)N3CCOCC3)CC(=O)N(C)[C@@H](CC3CCCCC3)C(=O)N[C@@H]([C@@H](C)CC)C(=O)N(C)CC(=O)N(C)[C@H]3CCCCN(C3=O)[C@@H](Cc3ccc(C(F)(F)F)cc3)C(=O)N(C)CC(=O)N[C@@H](CCc3cc(F)c(C(F)(F)F)c(F)c3)C(=O)N2C1 [PP0716]	–	–	C (A compound having a KD ratio of 0.1 or more and less than 3 is denoted as C)	B (a compound having 3 or more and less than 10 is denoted as B)	–
0.088	–	CCO[C@@H]1C[C@H]2C(=O)NC3(CCCC3)C(=O)N(C)[C@@H](C3CCCC3)C(=O)N(C)[C@H](C(=O)N3CCOCC3)CC(=O)N(C)[C@@H](CC(C)C)C(=O)N[C@@H]([C@@H](C)CC)C(=O)N(C)CC(=O)N(C)[C@H]3C[C@@H](C)CCN(C3=O)[C@@H](Cc3ccc(C(F)(F)F)cc3)C(=O)N(C)CC(=O)N[C@@H](CCc3cc(F)c(C(F)(F)F)c(F)c3)C(=O)N2C1 [PP1024]	B (a compound having 3 or more and less than 10 is denoted as B)	B (a compound having 3 or more and less than 10 is denoted as B)	–	–	–

Second part, the molecule before the results:

Structure (SMILES)	Kd ([1]; SPR, Single Cycle Kinetics) [nM]	Kd [1, 4] [nM]	NRAS/KRAS (ratio of KD value for NRAS to KD value for KRAS) [2]	HRAS/KRAS (ratio of KD value for HRAS to KD value for KRAS) [3]	NRAS/KRAS (ratio of KD value with respect to NRAS to KD value with respect to KRAS) [2]	HRAS/KRAS (ratio of KD value with respect to HRAS to KD value with respect to KRAS) [3]	further results
CC[C@H](C)[C@@H]1NC(=O)[C@H](C)N(C)C(=O)C[C@@H](C(=O)N2CCOCC2)N(C)C(=O)[C@H](C2CCCC2)N(C)C(=O)C2(CCC2)NC(=O)[C@@H]2CC(F)(F)CN2C(=O)[C@H](CCc2cc(F)c(C(F)(F)F)c(F)c2)NC(=O)CN(C)C(=O)[C@H](Cc2ccc(C(F)(F)F)cc2)N2CCCC[C@@H](C2=O)N(C)C(=O)CN(C)C1=O [PP0582]	–	0.02	–	–	C (A compound having a KD ratio of 0.1 or more and less than 3 is denoted as C)	B (a compound having 3 or more and less than 10 is denoted as B)	–
CCC[C@H]1C(=O)N[C@@H]([C@@H](C)CC)C(=O)N(C)CC(=O)N(C)[C@H]2C/C=C\CCN(C2=O)[C@@H](Cc2ccc(C(F)(F)F)cc2)C(=O)N(C)CC(=O)N[C@@H](CCc2ccc(C(F)(F)F)c(Cl)c2)C(=O)N2C[C@H](OCC)C[C@H]2C(=O)NC2(CC(C)(C)C2)C(=O)N(C)[C@@H](CC(C)C)C(=O)N(C)[C@H](C(=O)N(C)C)CC(=O)N1C [PP2977]	0.3	–	A (a compound having 10 or more and less than 20 is denoted as A)	A (a compound having 10 or more and less than 20 is denoted as A)	–	–	–
CCO[C@@H]1C[C@H]2C(=O)NC3(CCC3)C(=O)N(C)[C@@H](C(CC)CC)C(=O)N(C)[C@H](C(=O)N(C)CCOC)CC(=O)N(C)[C@@H](CC)C(=O)N[C@@H]([C@@H](C)CC)C(=O)N(C)CC(=O)N(C)[C@H]3C/C=C\CCN(C3=O)[C@@H](Cc3ccc(C(F)(F)F)cc3)C(=O)N(C)CC(=O)N[C@@H](CCc3cc(F)c(C(F)(F)F)c(F)c3)C(=O)N2C1 [PP1330]	–	–	–	–	–	–	Kd ([1]; SPR, Single Cycle Kinetics, 1:1 binding model): 0.42 nM; NRAS/KRAS (ratio of KD value for NRAS to KD value for KRAS) ([2]; KD ratio class): AA (a compound having 20 or more is denoted as AA); HRAS/KRAS (ratio of KD value for HRAS to KD value for KRAS) ([3]; KD ratio class): A (a compound having 10 or more and less than 20 is denoted as A)
CCCN1C(=O)CN(C)C(=O)CN(C)C(=O)[C@H]([C@@H](C)CC)NC(=O)[C@@H]2CCCCCCOc3ccc(cc3)C[C@H]1C(=O)N(C)CC(=O)N[C@@H](CCc1cc(F)c(C(F)(F)F)c(F)c1)C(=O)N1C[C@H](OCC)C[C@H]1C(=O)NC1(CCCC1)C(=O)N(C)[C@@H](C1CCCC1)C(=O)N(C)[C@H](C(=O)N(C)C)CC(=O)N2C [PP0896]	0.018	–	C (A compound having a KD ratio of 0.1 or more and less than 3 is denoted as C)	C (A compound having a KD ratio of 0.1 or more and less than 3 is denoted as C)	–	–	–
CCCN1C(=O)CN(C)C(=O)CN(C)C(=O)[C@H]([C@@H](C)CC)NC(=O)[C@H](CC(C)C)N(C)C(=O)C[C@@H](C(=O)N2CCOCC2)N(C)C(=O)[C@H](C2CCCC2)N(C)C(=O)C2(CCC2)NC(=O)[C@@H]2CC(F)(F)CN2C(=O)[C@H](CCc2ccc(C(F)(F)F)c(Cl)c2)NC(=O)CN(C)C(=O)[C@@H]1Cc1ccc(C(F)(F)F)cc1 [PP0207] ([NMeL]I[Sar][Sar][NPrPhe(4-CF3)][Sar][hPhe(3-Cl-4-CF3)][Pro(4,4-F2)][Ac4c][NMeGly(cPent)][NMeD]-Morpholide; lactam N-11)	–	0.066	B (a compound having 3 or more and less than 10 is denoted as B)	C (A compound having a KD ratio of 0.1 or more and less than 3 is denoted as C)	–	–	–
CCC[C@H]1C(=O)N[C@@H]([C@@H](C)CC)C(=O)N(C)CC(=O)N(C)[C@H]2C/C=C\CCN(C2=O)[C@@H](Cc2ccc(C(F)(F)F)cc2)C(=O)N(C)CC(=O)N[C@@H](CCc2ccc(C(F)(F)F)c(Cl)c2)C(=O)N2CCOC[C@H]2C(=O)NC2(CC(C)(C)C2)C(=O)N(C)[C@@H](C(CC)CC)C(=O)N(C)[C@H](C(=O)N(C)C)CC(=O)N1C [PP2929]	–	2.3	–	–	–	–	NRAS/KRAS (ratio of KD value with respect to GDP-bound NRAS wild-type protein to KD value with respect to KRAS) ([2]; SPR KD ratio NRAS/KRAS, class symbols): AA (a compound having 20 or more is denoted as AA); HRAS/KRAS (ratio of KD value with respect to GDP-bound HRAS wild-type protein to KD value with respect to KRAS) ([3]; SPR KD ratio HRAS/KRAS, class symbols): A (a compound having 10 or more and less than 20 is denoted as A)
CCCN(C)C(=O)[C@@H]1CC(=O)N(C)[C@@H](CC(F)F)C(=O)N[C@@H]([C@@H](C)CC)C(=O)N(C)CC(=O)N(C)[C@H]2C/C=C\CCN(C2=O)[C@@H](Cc2ccc(C(F)(F)F)cc2)C(=O)N(C)CC(=O)N[C@@H](CCc2cc(F)c(C(F)(F)F)c(F)c2)C(=O)N2C[C@@H](C)C[C@H]2C(=O)NC2(CC(C)(C)C2)C(=O)N(C)[C@@H](C2CCCC2)C(=O)N1C [PP2040]	0.31	–	A (a compound having 10 or more and less than 20 is denoted as A)	A (a compound having 10 or more and less than 20 is denoted as A)	–	–	–
